The source of these data is PMC6764326, “The Trials and Tribulations of Structure Assisted Design of KCa Channel Activators” (Frontiers in Pharmacology, 2019).

Test [1] concerns S372 in KCa3.1 or the corresponding S632 residue in KCa2.3 to arginine. Details: method as in Brown et al., 2017. The note with it: ref Brown et al., 2017; cited from earlier work.
The target in test [2] is T1, WT KCa3.1 (Homo sapiens, UniProt O15554+P0DP23). The note with it: 100 µM EBIO; control current at 250 nM free Ca2+; wild type channel.
The subject of test [3] is KCa3.1 over KCa2 channels. As to conditions: first generation activators; ref Christophersen and Wulff, 2015; cited from earlier work.
A further test deals with KCa3.1. The note with it: cited from earlier work; for EC50: ref Coleman et al., 2014, read-out: Potency of KCa3.1 activation.
Another test deals with KCa2.2. The arrangement: method as in Sankaranarayanan et al., 2009. As to conditions: ref Sankaranarayanan et al., 2009; cited from earlier work.
For the next test, the system named is KCa2. The arrangement: method as in Coleman et al., 2014. As to conditions: ref Coleman et al., 2014; read-out: Potency of KCa2 activation; cited from earlier work.
In a further test the test system is KCa2.3. Details: method as in Coleman et al., 2014. As to conditions: ref Coleman et al., 2014; read-out: Potency of KCa2.3 activation; cited from earlier work.
The target of test [4] is T1, WT KCa3.1. The test is described as follows: Inside-out patch-clamp calcium concentration-response. Details: expressed in transfected cells; host or cells: CHO cells, transient transfection. Format: cell-based. On the procedure:
(§1) All experiments were performed in either the inside-out or the whole-cell configuration of the patch-clamp technique on either transiently transfected CHO cells or Human Embryonic Kidney (HEK) cell lines stably expressing hKCa3.1 or hKCa2.2 ([Sankaranarayanan et al., 2009]). All cells were cultured in Dulbecco’s modified Eagle’s medium supplemented with 10% fetal calf serum. […]
(§2) For manual whole-cell experiments, the extracellular solution contained 160 mM NaCl, 4.5 mM KCl, 2 mM CaCl2, 1 mM MgCl2, and 10 mM HEPES (pH 7.4, 300 mOsm). Solutions on the intracellular side contained 154 mM KCl, 10 mM HEPES, 10 mM EGTA, 1.75 mM MgCl2, and 5.9 mM CaCl2 for a calculated free Ca^2+ concentration of 250 nM (pH 7.2, 290 mOsm). […] Intracellular solutions contained 154 mM KCl, 10 mM HEPES, 10 mM EGTA, 1.75 mM MgCl2, and varying amounts of CaCl2 for calculated free Ca^2+ concentrations of […] (pH 7.2, 280–300 mOsm). Free Ca^2+ concentrations were calculated using the July 3, 2009 online version of MaxChelator (https://somapp.ucdmc.ucdavis.edu/pharmacology/bers/maxchelator/webmaxc/webmaxcS.htm) assuming a temperature of 25°C, a pH of 7.2, and an ionic strength of 160 mM. […]

The target in test [5] is T2, KCa3.1 S181A-L185A double mutant (Homo sapiens, UniProt O15554+P0DP23, L185A/S181A).
T2 construct: expressed in transfected cells; host or cells: CHO cells, transient transfection
The description is as above. The format is cell-based. How it is done:
as §1, §2

Take `CCn1c(=O)[nH]c2ccccc21` [EBIO]: in test [1], the “Change of activator potency by S372R (KCa3.1) / S632R (KCa2.3) mutation” value is given as “strong reduction in potency”. For the same compound, the “Increase of control current” value at WT KCa3.1 [2] is recorded as 5–10 fold. For the same compound, the “Selectivity for KCa3.1 over KCa2 channels” value (shortened to “Selectivity”) in [3] is on record as 5–10 fold.

On to `O=C1Nc2c(ccc(Cl)c2Cl)C1=NO` [NS309, 6,7-dichloro-1H-indole-2,3-dione 3-oxime], for which the “Change of activator potency by S372R (KCa3.1) / S632R (KCa2.3) mutation” value in [1] is “strong reduction in potency”. Further, the “Selectivity” value in [3] was 5–10 fold.

In the case of `Nc1nc2c(ccc3ccccc32)s1` [SKA-31, Naphtho[1,2-d]thiazol-2-ylamine], in the test on KCa3.1 (10 µM, ref Sankaranarayanan et al., 2009), the “Activation of KCa3.1 at 10 µM” value is “maximally activates”. Further, in test [3], the “Selectivity” value is listed as 5–10 fold. Also, the “Activation of KCa2.2 at 10 µM” value with KCa2.2 is listed as “maximally activates”.

Consider `Cc1nc2c(ccc3ccccc32)s1` [SKA-74, 2-methylnaphtho[1,2-d]thiazole], for which the EC50 with KCa3.1 and in the test on KCa2 was approximately 30 µM each time.

`Nc1nc(-c2cccc3ccccc23)cs1` [SKA-75]: the EC50 in the test with KCa3.1 and with KCa2.3 was approximately 30 µM in each case.

For `Nc1nc(-c2ccc3ccccc3c2)cs1` [SKA-76], the EC50 with KCa3.1 was approximately 50 µM; with KCa2.3, approximately 25 µM.

For the compound `[Ca]` [calcium], on WT KCa3.1 [4], the EC50 was found to be 437 nM and the nH calcium concentration-response came out at 1.98. In [5], the EC50 is 392 nM and the nH calcium concentration-response came out at 1.39.
